Where “and” joins values, the source holds several entries; their conditions need not be identical. Equal values may be shown once. Entries after “also recorded” stand apart in the source; their conditions may differ. Read-outs that look alike come from different tables or passages of the source.
Columns and labels:
[1] = test system: Human Skeletal Myofibers; experiment: Myotube stimulated contraction (binary: contracting or not); type: cell-based; conditions: 4-organ co-culture under flow, 48 h drug treatment, day 7, broad-field electrical stimulation, DOX 5 μM, ATR 100 μM, VPA 2 mM, APAP 5 mM, AMAP 5 mM
Experimental: Myotube contraction in coverslips was evaluated after the co-culture was finalized. Individual surfaces were evaluated as previously reported in the group. Drugs effects were quantify in a binary code mode, cells were or were not contracting.

[2] = test system: Cardiomyocytes; design: method as in Literature; conditions: general toxic effects reported in the literature; ref Literature; cited from earlier work
[3] = test system: iPSc differentiated Cardiomyocytes; experiment: Cardiac beating frequency from video recordings; type: cell-based, human; conditions: 4-organ co-culture under flow, 48 h drug treatment, day 7, vs control, ATR 100 μM, VPA 2 mM, APAP 5 mM
Experimental: Seven or fourteen days after the co-culture, cardiac beating frequency was quantified from video recordings of three different areas of each of the cMEA surfaces, where the cardiomyocytes culture where located. Surfaces were located in a 37 °C bath platform containing co-culture medium with 50 mM HEPES on the stage of a Zeiss Axioscope 2FS upright microscope. Beats were counted in a period of 10 s, and the average number of 3 values was obtained. Drug effect was plotted as percentage of change compared to the control conditions.

[4] = cited from earlier work; for Toxic plasma concentration: humans
[5] = test system: Human Skeletal Myofibers; experiment: MTT viability of skeletal muscle module in 4-organ system; conditions: 4-organ co-culture under flow, serum-free medium, 48 h drug treatment, day 7, vs control, DOX 5 μM, ATR 100 μM, VPA 2 mM, APAP 5 mM, AMAP 5 mM
From the text: (§1) The four organ in vitro systems were assembled, on day 0, by placing the corresponding surfaces cell side up in a specific chamber of the housing (liver coverslip into chamber 1, cardiac coverslips and cantilevers into chambers 2 and 4, muscle coverslips into chamber 5, and neuron coverslips into chamber 3 and they were then topped with the serum-free co-culture medium (1X Neurobasal Medium, 1X B27, 1X AB/AM, 1X Glutamax (all from Life Technologies)) before locking the system. Right after assembling, the medium was completely replaced with 4 mL of the co-culture defined serum-free medium and the systems placed on a rocking platform inside an incubator. Platforms were checked every day by inspecting for expected cell morphology inside the system and by replacing medium (1.2 mL total volume) from the two reservoirs (30% of the total volume was replaced) with fresh medium. Drug incubation was initiated on day 5 of the co-culture by addition of the drug through the reservoir closer to the liver chamber (no. 1), allowing a first contact of the drug with the liver. 20 μL of the drug stock solution (or vehicle) to achieve a working concentration in 4 mL of total volume in the platform was utilized. On day 6, after 24 hours of drug incubation, 6 μL of the drug stock solution (or vehicle) was added to the fresh medium exchange volume (1.2 mL). After 48 hour of drug incubation, on day 7, systems were disassembled to test organ functionality that same day. For mono-culture conditions, surfaces remained in a 12-well plated with 1 mL of the co-culture defined serum-free medium maintained by daily replacement of half volume.
(§2) Seven days after the initiation of the co-culture, viability of each organ chamber, except for neurons, was evaluated through an MTT assay. […] Cell viability was measured at 570 nm in a Synergy HT plate reader and KC4 software. The results were expressed as the percentage of cell survival relative to the control (untreated or incubated with vehicle). The neuronal fraction viability was evaluated through morphological analysis throughout the co-culture experiment as the final coverslips were used for patch-clamp electrophysiology. Phase images (10X) where obtained every day of the co-culture. Neuronal viability was evaluated by cell morphology integrity and by cell count from day 1 to day 14.

[6] = test system: Muscle; design: method as in Literature; conditions: general toxic effects reported in the literature; ref Literature; cited from earlier work
[7] = test system: HepG2/C3A; experiment: Urea quantification, liver fraction of 4-organ system; type: cell-based, human; conditions: 4-organ co-culture under flow, 48 h drug treatment, vs control; DOX 5 μM, ATR 100 μM, APAP 5 mM, AMAP 5 mM
[8] = test system: Liver; design: method as in Literature; conditions: general toxic effects reported in the literature; ref Literature; cited from earlier work
[9] = test system: iPSc differentiated Cardiomyocytes; experiment: MTT viability of cardiac module in 4-organ system; conditions: 4-organ co-culture under flow, serum-free medium, 48 h drug treatment, day 7, vs control, DOX 5 μM, ATR 100 μM, VPA 2 mM, APAP 5 mM, AMAP 5 mM
From the text: as §1, §2

[10] = test system: HepG2/C3A; experiment: Human Serum Albumin quantification (ELISA), liver fraction of 4-organ system; type: cell-based; conditions: 4-organ co-culture under flow, 48 h drug treatment, vs control, DOX 5 μM, ATR 100 μM, VPA 2 mM, APAP 5 mM, AMAP 5 mM
Experimental: Human Serum Albumin (HSA) production from the liver fraction was tracked throughout the co-culture, by measuring the HSA concentration in the supernatant of the culture as it represents liver protein anabolism. Samples were collected from the exchanged medium (1.2 mL) and stored at −20 °C until analysis. One freeze-thaw cycle occurred before samples were analyzed following manufacturers’ instructions provided in the ELISA Starter Accessory Kit (Bethyl Laboratories Inc, Cat #: E101). Samples were diluted as necessary in sample conjugate/diluent buffer to ensure readings measured within the range of the standard curve. The standard curve was prepared by serial dilutions of human reference serum in sample conjugate/diluent buffer (0–1600 ng/ml).
Final HSA concentrations were calculated in an excel file by first removing the average OD reading measured for blanks from average sample and standard OD readings. Concentrations of standard dilutions were plotted against average OD values measured in XY scatter plots. A standard curve was created by adding an order of 2 polynomial trendline to XY scatter plots and selecting the option to display the equation of the trendline, as well as the R^2 value, on each scatter plot (for ease of analysis HSA sigmoidal curves were split into 3 standard curves with HSA concentration ranges of 0–200 ng/ml, 200–800 ng/ml and […]). Quadratic equations were rearranged to make X (sample HSA concentration) the unknown variant. Y values (OD values) and a/b/c constants generated from trendline equations were inputted into rearranged quadratic equations per assay. HSA concentrations calculated were corrected accordingly for any differences in culture final volumes, sample dilutions during assays and cells number.

[11] = test system: neurons; experiment: Neuron electrophysiology recording (patch clamp); type: cell-based, human; conditions: 4-organ co-culture under flow, 48 h drug treatment, day 7, vs control, DOX 5 μM, ATR 100 μM; for Neuronal ion currents and firing of stimulated action potentials / Neuronal repetitive and spontaneous firing ability / Neuronal electrophysiology, overall effect: APAP 5 mM; for Neuronal repetitive and spontaneous firing ability / Neuronal electrophysiology, overall effect: AMAP 5 mM; for Neuronal electrophysiology, overall effect: VPA 2 mM
From the text: Electrophysiological properties of neuron cultures where recorded on the last day of co-culture following a previously described method. Values of firing, repetitive firing, spontaneous firing, inward sodium current, outward potassium current, action potential peak voltage and the resting membrane potential, characterized the mature functionality of neurons in the in vitro system. Drug alterations of the neuronal electrophysiology are discussed in this manuscript.

[12] = test system: HepG2; design: method as in PMID 19107278; conditions: microfluidic system, double the concentration of APAP of this manuscript; cited from earlier work
[13] = test system: neurons; experiment: Neuronal viability by morphological analysis and cell count in 4-organ system; conditions: 4-organ co-culture under flow, serum-free medium, 48 h drug treatment, day 7, vs control, DOX 5 μM, ATR 100 μM, VPA 2 mM, APAP 5 mM, AMAP 5 mM
From the text: as §1, §2

[14] = test system: Neurons; design: method as in Literature; conditions: general toxic effects reported in the literature; ref Literature; cited from earlier work
[15] = test system: CYP3A4; experiment: Cytochrome p450 3A4 enzymatic activity in liver mono-culture; type: cell-based, human; conditions: ATR 100 μM, 48 hour incubation, data not shown
Experimental: Enzymatic products from 1A1 were run with LDR, and separately, 3A4 were run with LDR containing esterases. Enzymatic activities were finally represented as D-Luciferin picomoles produce in 1 hour by 1 × 10^6 cells.

| Compound | Skeletal muscle loss of contractile ability (share of cultures in which contraction ceased) [1] | Drug effects on cell functionality, Cardiomyocytes, Literature [2] | Drug effects on cell viability, Cardiomyocytes, Literature [2] | Cardiomyocyte beating rate (beat frequency), increase [3] | Skeletal muscle viability, loss [5] | Drug effects on cell functionality, Muscle, Literature [6] | Drug effects on cell viability, Muscle, Literature [6] | Drug effects on cell functionality, Liver, Literature [8] | Drug effects on cell viability, Liver, Literature [8] | Cardiomyocyte viability, loss [9] | HSA (albumin) production, increase [10] | Neuronal electrophysiology, overall effect [11] | Neuronal cell viability, loss (cell loss by morphology/cell count) [13] | Drug effects on cell functionality, Neurons, Literature [14] | Drug effects on cell viability, Neurons, Literature [14] | also measured |
| --- | --- | --- | --- | --- | --- | --- | --- | --- | --- | --- | --- | --- | --- | --- | --- | --- |
| CC(=O)Nc1ccc(O)cc1 [Acetaminophen] | 37% loss of contractile ability | Cardio-protective effect | Cardio-protective effect | 27 ± 9% increase in beating frequency | Toxicity not observed | Myo-protective effect | Myo-protective effect | Compromised | Toxicity reported | Toxicity not observed | not affected | Electrophysiology affected | 50 ± 18% loss of cell viability | Toxicity not reported | Toxicity not reported | Skeletal muscle loss of contractile ability (share of cultures in which contraction ceased) ([1]; listed as APAP): 37%; Therapeutic, and safe, plasma concentration ([4]; 500–1000 mg orally three times a day): low micromolar range; Toxic plasma concentration ([4]; after 24 hours): less than 50 μM; Toxic plasma concentration ([4]; first two hours after ingestion): around 2 mM; Skeletal muscle viability, loss ([5]; listed as APAP): not significantly affected; Urea production, increase [7]: 52 ± 13%; Cardiomyocyte viability, loss ([9]; listed as APAP): not significantly affected; also recorded: preserved (even improved); Neuronal ion currents and firing of stimulated action potentials [11]: no changes; Neuronal repetitive and spontaneous firing ability [11]: loss and lost; Reduction in HepG2 viability [12]: 60% |
| CC(C)c1c(C(=O)Nc2ccccc2)c(-c2ccccc2)c(-c2ccc(F)cc2)n1CC[C@@H](O)C[C@@H](O)CC(=O)O [Atorvastatin] | 50% loss of contractile ability | Cardio-protective effect | Cardio-protective effect | 43 ± 16% increase in beating rate | 30 ± 15% loss | Compromised | Toxicity reported | May be compromised | Toxicity reported | No toxic effect observed | not affected | Electrophysiology affected | 47 ± 14% loss of cell viability | Toxic at higher concentration( ^**) | Toxic at higher concentration( ^**) | Skeletal muscle loss of contractile ability (share of cultures in which contraction ceased) ([1]; listed as ATR): 50%; Cardiomyocyte beating rate (beat frequency), increase ([3]; listed as ATR): 43 ± 16%; Skeletal muscle viability, loss ([5]; listed as ATR): 30 ± 15%; Cardiomyocyte viability, loss ([9]; listed as ATR): no reduction; HSA (albumin) production, increase ([10]; listed as ATR): no change; Neuronal action potential peak voltage and resting membrane potential (DOX also peak ionic currents) [11]: changes; Neuronal repetitive and spontaneous firing ability ([11]; listed as ATR): altered ability; also recorded: no repetitively firing cells were observed; Neuronal ion currents and firing of stimulated action potentials ([11]; listed as ATR): typical ion currents and stimulated firing APs; also recorded: regular AP activity was recorded with good sodium and potassium currents; Neuronal cell viability, loss (cell loss by morphology/cell count) ([13]; listed as ATR): 47 ± 14% and 47 ± 16%; CYP3A4 activity induction [15]: 12 fold |
